Laboratory results taken from patent publication US4935435A, “Use of tetrazole derivatives” (May & Baker Limited, priority 1988, dated 1990).

Columns and labels:
[1] = test system: collagen-induced arthritis in rats; assay: collagen-induced arthritis in rats (joint size by electronic calipers, erosion and inflammation); assay type: in vivo, rat
Protocol: Joint sizes were measured periodically, for 70 days, by means of electronic calipers placed across the tibio-tarsal junction.

[2] = test system: collagen-induced arthritis in rats; assay: X-radiography of hind paws on day 71, collagen-induced arthritis in rats; assay type: in vivo; details: rat hind paws; 71st day; oral 30 mg/kg per day; versus control
Protocol: On the 71st day the hind paws were examined by X-radiography. Joint damage was assessed according to five parameters and scored on an arbitrary scale of 0 to 5.

SMILES: CC(=O)c1cc(F)cc(NC(=O)c2nnn[nH]2)c1O [compound A, 3'-Acetyl-5'-fluoro-2'-hydroxytetrazole-5-carboxanilide]
- mean joint diameter (tibio-tarsal junction) over the 70 days ([1]; oral 30 mg/kg per day, 70 days, control animals increased from 7.6 mm to 8.1 mm): 7.7 mm
- erosion and inflammation caused by collagen-induced arthritis ([1]; oral, 30 mg/kg body weight per day, compared with control animals): inhibited erosion and inflammation
- joint damage by X-radiography, five parameters scored on an arbitrary scale of 0 to 5 [2]: For each of the five parameters the joints of the control animals were more severely damaged than those of the treated animals
